Patent US8084049B2, “Complexes of fatty acid esters of polyhydroxyalkanes and pyridine carboxy derivatives” (priority 2002, dated 2011)
“Also recorded” adds a separate entry of the source.

Legend:
[1] = system: sub-chronic TPA induced mouse ear inflammation; experiment: sub-chronic TPA (repeated application) mouse ear inflammation model (Example 112); assay type: in vivo, female BALB/ca mice
Description: Investigation of two complexes according to the invention in a recognized pharmacodynamic model of sub-chronic inflammation.
The objective of this study was to assess the therapeutic value of the complexes of the invention in a very demanding pharmacodynamic model of dermal inflammation. Repeated application of TPA to the ears of the mice within 48 hours yields an inflammatory lesion with infiltration of leukocytes and persistent swelling. The reapplication of TPA ([…]) after 48 hours produces an inflammation and ear oedema, which is more dramatic due to the involvement and activation of a vast number of inflammatory cells. Therefore the model is suitable for drug evaluation in relation to more aggravated or chronic inflammatory conditions. The test substance for evaluation is co-applied with the second TPA application. […]
Mean weights and standard deviations were calculated. Relative ear oedema was assessed as the weight difference between right and left ear of each mouse expressed as percent of the left ear. Percent inhibition of the relative ear oedema compared with the vehicle treated groups was calculated for the test substance and positive control treated group. […]

[2] = system: 12-O-tetradecanoylphorbol-13-acetate (TPA) induced mouse ear inflammation; experiment: acute TPA induced mouse ear inflammation model (Example 111); assay type: in vivo, female BALB/ca mice; details: vs vehicle
Description: This was done by comparing a high dose, corresponding to Emax (the maximal obtainable effect representing the plateau of the dose-response curve) with the individual effects of the molar amount present of each component of the complex. If the effect of the complex is higher than the sum of the components the effect is synergistic. […] The positive control used in this study was betamethasone 17-valerate applied as a commercial preparation with maximum human dose (Celeston® Cutaneous Solution 0.1%, Shering-Plough).
The test substances were administered 20 minutes before and 20 minutes after application of TPA to the ear.
All groups were treated with 20 μl TPA solution 400 μg/ml in acetone, on the right ear.
Three hours after the TPA application the mice were sacrificed, the ears cut from the tip with a punch biopsy knife (8 mm diameter) and weighed.
Differences in relative ear oedema between the vehicle treated group and the other groups were tested for significance employing a non-parametric statistical method of analysis, the Mann-Whitney U test. The required level of significance was p<0.05.

Candida albicans = experiment: antimicrobial MIC test (Example 113); assay type: cell-based; details: 1 to 4 days culture; initial test concentration 3 mM in 1% DMSO and dilutions
Description: (§1) Test substance or vehicle is added to test wells containing the selected microorganisms (1×10^4 to 5×10^5 CFU/ml)in cultures grown under controlled conditions. The final innoculum concentration is determined by reference to a standard optical density curve and adjusted as required. After 1 to 4 days, growth of the culture is examined and scored positive (+) for inhibition of growth or turbidity, or negative (−) for no effect upon growth or turbidity. An initial test concentration of 3 mM in 1% DMSO is used and dilutions are tested to establish the minimal inhibitory concentration (MIC).

Epidermophyton floccosum = experiment: antimicrobial MIC test (Example 113); assay type: cell-based; details: 1 to 4 days culture; initial test concentration 3 mM in 1% DMSO and dilutions
Description: as §1

Microsporum canis = experiment: antimicrobial MIC test (Example 113); assay type: cell-based; details: 1 to 4 days culture; initial test concentration 3 mM in 1% DMSO and dilutions
Description: as §1

Streptococcus faecalis = experiment: antimicrobial MIC test (Example 113); assay type: cell-based; details: 1 to 4 days culture; initial test concentration 3 mM in 1% DMSO and dilutions
Description: as §1

Trichophyton rubrum = experiment: antimicrobial MIC test (Example 113); assay type: cell-based; details: 1 to 4 days culture; initial test concentration 3 mM in 1% DMSO and dilutions
Description: as §1

How did the “effect in the sub-chronic TPA model” value ([1]; observation of the inventor on mild steroids) turn out when C[C@]12CCC(=O)C=C1CC[C@@H]1[C@@H]2[C@@H](O)C[C@@]2(C)[C@H]1CC[C@]2(O)C(=O)CO [hydrocortisone] was run?
Its value is “no effect; also recorded: no measurable effects”.

How did the “% Inhibition of relative ear oedema” value ([2]; 64.1 μmol/ear, given 20 min before and 20 min after TPA, ears weighed 3 h after TPA) turn out when NC(=O)c1cccnc1 [Niacinamide] was run?
Its value is 18%.

What does the source list for CCCCCCCC(=O)OCC(O)CO (racemic) [Rac-1-glyceryl-monocaprylate]?
% Inhibition of relative ear oedema ([2]; 4.58 μmol/ear, given 20 min before and 20 min after TPA, ears weighed 3 h after TPA): 22%; MIC (Candida albicans): Not active at tested; MIC (Epidermophyton floccosum): Not active at tested; MIC (Microsporum canis): Not active at tested; MIC (Streptococcus faecalis): Not active at tested; MIC (Trichophyton rubrum): Not active at tested

CCCCC(=O)O[C@]1(C(=O)CO)[C@@H](C)C[C@H]2[C@@H]3CCC4=CC(=O)C=C[C@]4(C)[C@@]3(F)[C@@H](O)C[C@@]21C [Betamethasone 17-valerate] was tested. Which “% Inhibition of relative ear oedema” value ([2]; 0.02 mg/ear (Celeston Cutaneous Solution 0.1%), 20 min before and after TPA, 3 h after TPA) did it give?
The value was 66%.

And the “% Inhibition of relative ear oedema” value ([1]; 0.02 mg/ear, 20 min before and after TPA re-application at 48 h, 3 h after TPA, vs vehicle)?
Its value is 31%.
